From US11730712B2, “Functionalized long-chain hydrocarbon mono- and di-carboxylic acids and derivatives thereof, and their use for the prevention or treatment of disease” (ESPERVITA THERAPEUTICS, INC., priority 2021, dated 2023)

Tests used:
[1] = system: hepatic cell death pathways (pyroptosis, necroptosis, apoptosis); assay: Hepatic cell death pathways by Western blot (gasdermin D, cleaved caspase 3, cleaved RIP3); assay type: in vivo, mouse; settings: liver samples from HFCC/CDX mice, 100 mg/kg QD oral, 2 weeks
Method: Compound I-1 and Compound I-32 were tested for their ability to alter hepatic cell death pathways (i.e., pyroptosis, necroptosis, and apoptosis) using liver samples from Example 7. Detection was performed on liver sections obtained from the experiment described in Example 7. Paraffin sections were deparaffinized. Western blot analysis was performed by the We-Met platform. Toulouse. France, France. Commercial primary antibodies for Gasdermin D (reference ab209845; Abcam, Cambridge, UK), cleaved caspase 3 (reference 9664, Cell Signaling Technology. Danvers, Mass.), cleaved receptor interacting protein 3 (RIP3; reference ab56164; Abcam) and actin (reference 4970; Cell Signaling Technology) for control, were used on the WES automated western blot system (Proteinsimple, San Jose, Calif.). Data are presented as mean±SEM, with n=6-10 mice per experimental group, as indicated in the legends. Two-way analysis of variance with Bonferroni post-test. Mann-Whitney U-test, or unpaired two-tailed Student's t-test were used for statistical analysis using GraphPad Prism software (GraphPad Software, La Jolla, Calif.). A P<0.05 was considered significant.

[2] = Toxicokinetics in female rat plasma (4-day oral gavage study, Day 1); assay type: in vivo; settings: for dose proportionality of increases in mean Cmax and AUC0-24: 100 to 300 mg/kg/day
Method: Bioanalytical and Toxicokinetic Analyses. Blood samples (approximately 0.3 mL) were collected from nonfasted toxicokinetic animals via a jugular vein on Day 1 of the dosing phase, as indicated in the following table. Samples were collected predose and approximately 1, 2, 4, and 24 hours postdose.
Blood was collected into tubes containing potassium (K2) EDTA as the anticoagulant. Samples were maintained on chilled cryoracks and were centrifuged within 1 hour of collection. Plasma was harvested into two approximately equal aliquots and stored on dry ice until placed in a freezer, set to maintain −60 to −80° C., until analyzed. Plasma samples were analyzed for Compound I-1 and Compound I-32 content using a generic Tier 1 qualified liquid chromatography-tandem mass spectrometry (LC-MS/MS) method.
In-Life Phase. Animals were dosed once daily for up to 4 days via oral gavage at a volume of 10 mL/kg. Animals in Group 2 and 3 were administered Compound I-1. Animals in Group 4 and 5 were administered Compound I-32. The control article for Group 1 was 1.5% (w/v) carboxymethyl cellulose+0.2% (v/v) Tween 20 in deionized (DI) water. The vehicle used to prepare Compound I-1 and Compound I-32 formulations was 3% (w/v) carboxymethyl cellulose+0.4% (v/v) Tween 20 in DI water.

C57BL6/J mice = assay: Indirect calorimetry (CLAMS) in fructose-fed C57BL6 mice; assay type: in vivo, mouse; settings: 100 mg/kg oral gavage, refed mice with RER >1
Method: Materials and Methods. All experiments were carried out using the methods approved by the Animal Research Ethics Board at McMaster University, Canada (Steinberg Laboratory Animal Utilization Protocol #16-12-42). 8-Week-old male C57BL6/J mice were ordered from Jackson Laboratory, Bar Harbor, Me. and housed at the McMaster University Central Animal Facility. Animals were housed in the ventilated cages racks system and provided with ad libitum access to normal chow diet (Teklad 8640 22/5 rodent diet, procured from Envigo, Mississauga ON) and water supplemented with fructose (30% weight/volume, made fresh weekly) for at least 2-weeks before testing commenced. […] Data were analyzed using one-way analyses of variance followed by a Tukey's multiple comparisons post hoc test where appropriate. […]
Experimental and Results. Respiratory Exchange Ratio (RER) and related metabolic parameters were measured using the Comprehensive Lab Animal Monitoring System (CLAMS, Columbus Instruments, Columbus, Ohio). […] RER was monitored and those animals with RER values >1 were administered either vehicle (1.5% Carboxymethyl cellulose and 0.2% Tween 20) alone or vehicle containing Compound I-1 or Compound I-32 at a dose of 100 mg/kg via oral gavage. Animals remained in the metabolic cages and RER, activity level, locomotor activity, and food intake were monitored for 24 hours. […]

[3] = female rat plasma, 100 mg/kg/day oral gavage, Day 1

| SMILES | hepatic cell death pathways (pyroptosis, apoptosis, necroptosis) by Western blot [1] | AUC0-24 [2, 3] | Tmax [2, 3] [h] | Tmax ([2]; female rat plasma, 300 mg/kg/day oral gavage, Day 1) [h] | dose proportionality of increases in mean Cmax and AUC0-24 ([2]; female rat) | Respiratory Exchange Ratio (RER) compared to vehicle treated group (C57BL6/J mice) | Cmax ([2]; Wistar Han, plasma, oral, female rat, 300 mg/kg/day, Day 1, read-out: mean maximum observed concentration (Cmax)) [µg/mL] |
| --- | --- | --- | --- | --- | --- | --- | --- |
| CC(C)(CCCCc1ccc(CCCCC(C)(C)C(=O)O)cc1)C(=O)O [Compound I-1, 6-[4-(5-carboxy-5-methylhexyl)-phenyl]-2,2-dimethylhexanoic acid] | significantly repressed pyroptosis and apoptosis cell death pathways with a trend towards necroptosis | 5,460,000 h*ng/mL | 2.00 | 1.00 | less than dose proportional | significant reduction in the RER | – |
| CC(C)(CCCCc1cccc(CCCCC(C)(C)C(=O)O)c1)C(=O)O [Compound I-32, 6-[3-(5-carboxy-5-methylhexyl)-phenyl]-2,2-dimethylhexanoic acid] | significantly repressed pyroptosis and apoptosis cell death pathways with a trend towards necroptosis | – | – | – | approximately dose proportional | significant reduction in the RER | 406 |
